From ChEMBL document CHEMBL3217655, “The development of quinoloneesters as novel antimalarial agents targeting the Plasmodium falciparum bc1protein complex” (Medchemcomm, 2012) come the findings set out here.

The term IC50 denotes the concentration that inhibits the measured activity by half. As a reminder, the EC50 is the midpoint of the concentration-response curve.

Molecules are shown by their SMILES. Bounds are passed on as bounds.

The subject of one experiment is Plasmodium falciparum. As to the kind of experiment: Antimalarial activity against wild type Plasmodium falciparum 3D7 assessed as growth inhibition. It is filed as functional, organism-based.
Experiment [1] can be described thus: Inhibition of Plasmodium falciparum 3D7 cytochrome bc1 complex assessed as cytochrome c reduction by spectrophotometric analysis in presence of decylubiquinol.
Where [2] appears, read: Plasmodium falciparum, 3D7, read-out: IC50.

As for `CCOC(=O)c1c[nH]c2ccc(Oc3ccccc3)cc2c1=O`, the IC50 with Plasmodium falciparum (setting [2]) is 164 nM. As for `CCOC(=O)c1c[nH]c2cc(Oc3ccccc3)ccc2c1=O`, the IC50 in the experiment with Plasmodium falciparum (setting [2]) came out at 19.3 nM.

Turning to `CCOC(=O)c1c[nH]c2cc(Cc3ccccc3)ccc2c1=O`, the IC50 in the experiment on Plasmodium falciparum (setting [2]) is 4.57 nM. On to `CCOC(=O)c1c[nH]c2ccc(OCc3ccccc3)cc2c1=O`, for which the IC50 result with Plasmodium falciparum is “ND(Insoluble)”. Still for that read-out and setting: as for `CCOC(=O)c1c[nH]c2cc(OCc3ccccc3)ccc2c1=O`, the entry is “ND(Insoluble)”. For `CCOC(=O)c1c[nH]c2ccc(Oc3ccc(OC(F)(F)F)cc3)cc2c1=O`, the IC50 with Plasmodium falciparum (setting [2]) was determined as 230 nM. On the same count and under the same terms, the same measure for `CCOC(=O)c1c[nH]c2cc(Oc3ccc(OC(F)(F)F)cc3)ccc2c1=O`: 5.3 nM; for `CCOC(=O)c1c[nH]c2ccc(Cc3ccc(OC(F)(F)F)cc3)cc2c1=O`: 142 nM.

In the case of `CCOC(=O)c1c[nH]c2cc(Cc3ccc(OC(F)(F)F)cc3)ccc2c1=O`, the IC50 in the experiment on Plasmodium falciparum (setting [2]) came to 0.46 nM. Further, the EC50 in experiment [1] came to 1.3 nM. Turning to `CCOC(=O)c1c[nH]c2ccc(OCc3ccc(OC(F)(F)F)cc3)cc2c1=O`, the IC50 in the experiment with Plasmodium falciparum (setting [2]) was determined as 675 nM. As for `CCOC(=O)c1c[nH]c2cc(OCc3ccc(OC(F)(F)F)cc3)ccc2c1=O`, the IC50 in the experiment on Plasmodium falciparum (setting [2]) came to 5 nM.

For the compound `N#Cc1c[nH]c2ccc(Oc3ccccc3)cc2c1=O`, the IC50 in the experiment on Plasmodium falciparum (setting [2]) is above 10000 nM. Still for that read-out and setting: the same measure for `N#Cc1c[nH]c2cc(Oc3ccccc3)ccc2c1=O`: 8100 nM. Take `O=c1cc[nH]c2ccc(Oc3ccccc3)cc12`: the IC50 in the experiment on Plasmodium falciparum (setting [2]) turned out to be 4700 nM. `O=c1cc[nH]c2cc(Oc3ccccc3)ccc12`: the IC50 in the experiment on Plasmodium falciparum (setting [2]) was found to be 6720 nM.

On to `CC(C)OC(=O)c1c[nH]c2ccc(Oc3ccccc3)cc2c1=O`, for which, in the experiment on Plasmodium falciparum (setting [2]), the 50% inhibitory concentration (IC50) is 184 nM. As for `CC(C)OC(=O)c1c[nH]c2cc(Oc3ccccc3)ccc2c1=O`, the IC50 with Plasmodium falciparum (setting [2]) was determined as 8.45 nM. On to `O=C(OC1CCCCC1)c1c[nH]c2ccc(Oc3ccccc3)cc2c1=O`, for which the IC50 in the experiment with Plasmodium falciparum (setting [2]) was 1820 nM. `O=C(OC1CCCCC1)c1c[nH]c2cc(Oc3ccccc3)ccc2c1=O`: the IC50 in the experiment on Plasmodium falciparum (setting [2]) came to 29.6 nM. As for `CCOC(=O)c1c[nH]c2ccc(Cc3ccccc3)cc2c1=O`, the IC50 in the experiment with Plasmodium falciparum (setting [2]) came to 40.4 nM. `O=C1C(O)=C([C@H]2CC[C@H](c3ccc(Cl)cc3)CC2)C(=O)c2ccccc21` [ATOVAQUONE]: the EC50 in experiment [1] was 3 nM.
